Results: patent publication US11884676B2, “Substituted pyrimido[1,2-b]pyridazines as positive allosteric modulators of the muscarinic acetylcholine receptor M4” (Vanderbilt University, priority 2020, dated 2024)

Key:
Human M4 = target: T1, Human M4 (Homo sapiens, UniProt P08173); experiment: mAChR M4 cell-based functional assay (calcium flux, PAM mode); set-up: Emax: dose or concentration left out as unconfirmed; conditions: for Emax at 30 µM: CHO-K1, % ACh maximum at 30 μM; for Emax at 30 µM / EC50: hM4-Gqi5 CHO-K1 cells; for EC50: concentration-dependent increase in the EC20 acetylcholine response
T1 construct: expressed in transfected cells
T1 sequence (P08173 1-479): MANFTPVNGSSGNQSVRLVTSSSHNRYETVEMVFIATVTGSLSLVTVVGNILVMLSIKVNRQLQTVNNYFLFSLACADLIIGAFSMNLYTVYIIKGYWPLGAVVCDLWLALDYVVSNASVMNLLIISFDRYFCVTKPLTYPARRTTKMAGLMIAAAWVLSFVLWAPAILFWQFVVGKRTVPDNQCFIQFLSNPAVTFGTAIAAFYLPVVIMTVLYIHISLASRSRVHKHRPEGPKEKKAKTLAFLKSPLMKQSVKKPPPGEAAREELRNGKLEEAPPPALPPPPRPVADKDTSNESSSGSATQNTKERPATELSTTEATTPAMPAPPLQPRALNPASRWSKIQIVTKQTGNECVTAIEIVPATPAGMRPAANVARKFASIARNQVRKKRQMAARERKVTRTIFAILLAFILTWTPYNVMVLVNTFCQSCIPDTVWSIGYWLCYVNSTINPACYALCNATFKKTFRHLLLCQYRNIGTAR
How it was run: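 PAM potency (EC50) and Emax came from four-parameter fits of the rise in EC20 acetylcholine-evoked calcium signal (Fluo-4, FDSS, 1 Hz). Human M4/Gqi5 CHO-K1 stable line; 11-point 1:3 compound series preceded ACh EC20 addition at 144 s, with EC80 ACh added at 230 s.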

[1] = human, in vivo; cited from earlier work
[2] = cited from earlier work
[3] = Alzheimer's disease patients; Bodick et al. 1997; cited from earlier work

Row | Emax at 30 µM (Human M4) | EC50 (Human M4) | Compound | also measured
1 | 111% | 94 nM | [2H]C1([2H])Oc2ccc(O[C@H]3CCN(c4nn5c(=O)cc(COC)nc5c(C)c4C)C[C@H]3F)cc2OC1([2H])[2H] [Compound 122, 7-((3R,4S)-4-((2,3-dihydrobenzo[b][1,4]dioxin-6-yl-2,2,3,3-d4)oxy)-3-fluoropiperidin-1-yl)-2-(methoxymethyl)-8,9-dimethyl-4H-pyrimido[1,2-b]pyridazin-4-one] | 
2 | 89% | 556 nM | CNc1c(C)c(N2CCC(Oc3ccc4c(c3)OCCO4)CC2)nn2c(=O)ccnc12 [Compound 123, 7-(4-((2,3-dihydrobenzo[b][1,4]dioxin-6-yl)oxy)piperidin-1-yl)-8-methyl-9-(methylamino)-4H-pyrimido[1,2-b]pyridazin-4-one] | 
3 | 109% | 101 nM | [2H]C1([2H])Oc2ccc(O[C@@H]3CCN(c4nn5c(=O)cc(COC)nc5c(C)c4C)C[C@H]3F)cc2OC1([2H])[2H] [Compound 124, 7-((3R,4R)-4-((2,3-dihydrobenzo[b][1,4]dioxin-6-yl-2,2,3,3-d4)oxy)-3-fluoropiperidin-1-yl)-2-(methoxymethyl)-8,9-dimethyl-4H-pyrimido[1,2-b]pyridazin-4-one] | 
4 | 108% | 87 nM | [2H]C1([2H])Oc2ccc(O[C@@H]3CCN(c4nn5c(=O)cc(COC)nc5cc4C)C[C@H]3F)cc2OC1([2H])[2H] [Compound 125, 7-((3R,4R)-4-((2,3-dihydrobenzo[b][1,4]dioxin-6-yl-2,2,3,3-d4)oxy)-3-fluoropiperidin-1-yl)-2-(methoxymethyl)-8-methyl-4H-pyrimido[1,2-b]pyridazin-4-one] | 
5 | 109% | 421 nM | COc1c(C)c(N2CCC(Oc3ccc4c(c3)OCCO4)CC2)nn2c(=O)ccnc12 [Compound 126, 7-(4-((2,3-Dihydrobenzo[b][1,4]dioxin-6-yl)oxy)piperidin-1-yl)-9-methoxy-8-methyl-4H-pyrimido[1,2-b]pyridazin-4-one] | 
6 | 125% | 53 nM | [2H]C1([2H])Oc2ccc(O[C@@H]3CCN(c4nn5c(=O)ccnc5c(C)c4C)C[C@H]3F)cc2OC1([2H])[2H] [Compound 128, 7-((3R,4R)-4-((2,3-dihydrobenzo[b][1,4]dioxin-6-yl-2,2,3,3-d4)oxy)-3-fluoropiperidin-1-yl)-8,9-dimethyl-4H-pyrimido[1,2-b]pyridazin-4-one] | 
7 | 120% | 81 nM | [2H]C1([2H])Oc2ccc(O[C@H]3CCN(c4nn5c(=O)ccnc5cc4C)[C@H](C)C3)cc2OC1([2H])[2H] [Compound 129, 7-((2R,4S)-4-((2,3-Dihydrobenzo[b][1,4]dioxin-6-yl-2,2,3,3-d4)oxy)-2-methylpiperidin-1-yl)-8-methyl-4H-pyrimido[1,2-b]pyridazin-4-one] | 
8 | 116% | 160 nM | [2H]C1([2H])Oc2cc(O[C@H]3CCN(c4nn5c(=O)ccnc5cc4C)[C@H](C)C3)cc(F)c2OC1([2H])[2H] [Compound 130, 7-((2R,4S)-4-((8-fluoro-2,3-dihydrobenzo[b][1,4]dioxin-6-yl-2,2,3,3-d4)oxy)-2-methylpiperidin-1-yl)-8-methyl-4H-pyrimido[1,2-b]pyridazin-4-one] | 
9 | 119% | 203 nM | Cc1cc2nccc(=O)n2nc1N1CC[C@H](Oc2cc(F)c3c(c2)OCCO3)C[C@H]1C [Compound 131, 7-((2R,4S)-4-((8-fluoro-2,3-dihydrobenzo[b][1,4]dioxin-6-yl)oxy)-2-methylpiperidin-1-yl)-8-methyl-4H-pyrimido[1,2-b]pyridazin-4-one] | 
10 | 107% | 34 nM | [2H]C1([2H])Oc2ccc(O[C@H]3CCN(c4nn5c(=O)ccnc5c(C)c4C)[C@H](C)C3)cc2OC1([2H])[2H] [Compound 132, 7-((2R,4S)-4-((2,3-dihydrobenzo[b][1,4]dioxin-6-yl-2,2,3,3-d4)oxy)-2-methylpiperidin-1-yl)-8,9-dimethyl-4H-pyrimido[1,2-b]pyridazin-4-one] | 
11 | 105% | 96 nM | [2H]C1([2H])Oc2ccc(O[C@H]3CCN(c4nn5c(=O)cc(COC)nc5c(C)c4C)[C@H](C)C3)cc2OC1([2H])[2H] [Compound 133, 7-((2R,4S)-4-((2,3-dihydrobenzo[b][1,4]dioxin-6-yl-2,2,3,3-d4)oxy)-2-methylpiperidin-1-yl)-2-(methoxymethyl)-8,9-dimethyl-4H-pyrimido[1,2-b]pyridazin-4-one] | 
12 | 105% | 25 nM | Cc1c(N2CC[C@H](Oc3ccc4c(c3)OCCO4)C[C@H]2C)nn2c(=O)ccnc2c1C [Compound 134, 7-((2R,4S)-4-((2,3-dihydrobenzo[b][1,4]dioxin-6-yl)oxy)-2-methylpiperidin-1-yl)-8,9-dimethyl-4H-pyrimido[1,2-b]pyridazin-4-one] | 
13 | 98% | 75 nM | Cc1cc2nccc(=O)n2nc1N1CCC(Oc2cc(F)c3c(c2)OCCO3)CC1 [Compound 135, 7-(4-((8-fluoro-2,3-dihydrobenzo[b][1,4]dioxin-6-yl)oxy)piperidin-1-yl)-8-methyl-4H-pyrimido[1,2-b]pyridazin-4-one] | 
14 | 97% | 73 nM | [2H]C1([2H])Oc2cc(OC3CCN(c4nn5c(=O)ccnc5cc4C)CC3)cc(F)c2OC1([2H])[2H] [Compound 136, 7-(4-((8-fluoro-2,3-dihydrobenzo[b][1,4]dioxin-6-yl-2,2,3,3-d4)oxy)piperidin-1-yl)-8-methyl-4H-pyrimido[1,2-b]pyridazin-4-one] | 
15 | 105% | 45 nM | [2H]C1([2H])CC(Oc2ccc3c(c2)OC([2H])([2H])C([2H])([2H])O3)CC([2H])([2H])N1c1nn2c(=O)ccnc2cc1C [Compound 137, 7-(4-((2,3-dihydrobenzo[b][1,4]dioxin-6-yl-2,2,3,3-d4)oxy)piperidin-1-yl-2,2,6,6-d4)-8-methyl-4H-pyrimido[1,2-b]pyridazin-4-one] | 
16 |  |  | Nc1c2c(nc3ccccc13)CCCC2 [tacrine] | elevated liver transaminases observed in patients [1]: about 30 % of patients
17 |  |  | CCCCCCOc1nsnc1C1=CCCN(C)C1 [xanomeline] | activity in animal models with similar profiles to known antipsychotic drugs ([2]; Bymaster et al., Shannon et al.): active; catalepsy ([2]; animal models): without causing catalepsy; psychotic behavioral symptoms such as delusions, suspiciousness, vocal outbursts, and hallucinations [3]: reduce psychotic behavioral symptoms

Row | Compound | Emax at 30 µM (Human M4) | EC50 (Human M4) | also measured
18 | Cc1c(N2CCC(Oc3ccc4c(c3)OCCO4)CC2)nn2c(=O)ccnc2c1N1CCC1 [Compound 127, 9-(Azetidin-1-yl)-7-(4-((2,3-dihydrobenzo[b][1,4]dioxin-6-yl)oxy)piperidin-1-yl)-8-methyl-4H-pyrimido[1,2-b]pyridazin-4-one] |  | 1600 nM | Emax (Human M4; CHO-K1, read-out: Human M4 Emax (%)*): 58%
